According to patent publication US20240390369A1, “METHODS FOR DETERMINING RESPONSIVENESS TO TYK2 INHIBITORS” (Bristol-Myers Squibb Company, priority 2021, published 2024):
Values joined by “and” are separate entries in the source; they are usually repeats but may differ in a detail not shown here. Equal entries are not always repeated.

Tested on: patients with psoriatic arthritis
Experiment: Phase 2 trial in psoriatic arthritis: PASI75 response at week 16
Assay type: in vivo, human
Details: for Number of subjects: 12 mg QD
Protocol: In a double-blind Phase 2 trial, 203 patients with psoriatic arthritis were randomized into three groups: deucravacitinib 6 mg once daily (N=70), deucravacitinib 12 mg once daily (N=67), or placebo (N=66). All subjects had active psoriatic arthritis according to the Classification Criteria for Psoriatic Arthritis (CASPAR); for active disease, these criteria required ≥3 tender joint count, ≥3 swollen joint count, and a C-reactive protein level above 3 mg/L. Other inclusion criteria included the following: presence of at least one plaque psoriasis lesion, and prior treatment failure with a non-biologic disease modifying anti-rheumatic drug, a non-steroidal anti-inflammatory drug, or a steroid. With respect to treatment history, approximately 70% of subjects had not received prior treatment with a biologic and were biologic naïve, while up to 30% of subjects had failed or had been intolerant to one TNF-inhibitor (TNF=Tumor necrosis factor, also known as TNFα). Randomization was stratified by prior TNF-inhibitor use (experienced/naïve) and body weight (<90 kg and ≥90 kg).
Clinical measures included the Psoriasis […] (PASI) score for skin psoriasis, American College of Rheumatology 20 (ACR20) response, Psoriatic Arthritis Disease Activity Score (PASDAS), Health Assessment Questionnaire-Disability Index (HAQ-DI), and Disease Activity Score 28 CRP (DAS28). To evaluate the predictive value of different protein measurements for the clinical response to deucravacitinib, baseline protein concentrations for responders and non-responders, as defined by ACR20 or PASI75 at week 16, were compared for each arm (placebo, 6 mg deucravacitinib once-daily, and 12 mg deucravacitinib once-daily).
In addition, a logistic regression model was fit, to determine whether baseline disease score (dichotomized by the median baseline score, into baseline score high and baseline score low groups) was associated with response status. The model generated an odds ratio for each dosed arm versus placebo, in baseline score high and baseline score low groups.
Boxplots for baseline protein level by response were generated with a horizontal line indicating the median protein level at baseline. For each treatment arm, a two-sample t-test was performed to test whether mean baseline serum protein level was different in responders versus non-responders. A Wilcoxon rank sum test (Mann-Whitney U test) was also performed to evaluate the difference in median serum protein level between responders and non-responders. Further, barplots of ACR20 and PASI75 response rate at week 16 for each treatment arm were generated for all subjects (protein level high and protein level low subjects, dichotomized according to median baseline level). Line plots of ACR20 and PASI75 response rate over time for each treatment arm were generated for protein level high and protein level low groups. Logistic regression models were also fit to evaluate associations between baseline protein levels and clinical outcome.
For certain analyses described herein, patients were dichotomized by median values (e.g., of the proteins listed above or other measures) into “high” and “low” groups, such that the high group had values above the median and the low group had values less than or equal to the median.
In addition, logistic regression models were fit for response measures ACR20 and PASI75, to generate the odds ratio of each of the deucravacitinib treatment arms versus placebo, in BD2-high and BD2-low groups. The following logistic regression models were used: • For ACR20 response status: ACR20 (Y/N)=treatment arm+BD2 group+treatment arm*BD2 group+TNF-inhibitor use+baseline weight (continuous). • For PASI75 response status: PASI75 (Y/N)=treatment arm+BD2 group+treatment arm*BD2 group+TNF-inhibitor use+baseline weight (continuous). […]

[2H]C([2H])([2H])NC(=O)c1nnc(NC(=O)C2CC2)cc1Nc1cccc(-c2ncn(C)n2)c1OC [deucravacitinib, 6-(cyclopropanecarboxamido)-4-((2-methoxy-3-(1-methyl-1H-1,2,4-triazol-3-yl)phenyl)amino)-N-(methyl-d3)pyridazine-3-carboxamide]
Number of subjects (PASI75 responder at week 16, above median baseline IL-19 level): 20
Number of subjects (PASI75 responder at week 16, below baseline PASI median 6.6): 11
Number of subjects (PASI75 responder at week 16, below median baseline BD2 level): 19
Number of subjects (PASI75 responder at week 16, below median baseline IL-17A level): 12
Number of subjects (PASI75 responder at week 16, below median baseline IL-19 level): 10
Number of subjects (PASI75 responder, BD2-high-PASI-high): 13
Number of subjects (PASI75 responder, BD2-high-PASI-low): 7
Number of subjects (PASI75 responder, BD2-low-PASI-high): 6
Number of subjects (PASI75 responder, BD2-low-PASI-low): 4
Number of subjects (PASI75 responder, IL-17A-high-PASI-high): 10
Number of subjects (PASI75 responder, IL-17A-high-PASI-low): 8
Number of subjects (PASI75 responder, IL-17A-low-PASI-high): 9
Number of subjects (PASI75 responder, IL-17A-low-PASI-low): 3
Number of subjects (PASI75 responder, IL-19-high-PASI-high): 12
Number of subjects (PASI75 responder, IL-19-high-PASI-low): 8
Number of subjects (PASI75 responder, IL-19-low-PASI-high): 7
Number of subjects (PASI75 responder, IL-19-low-PASI-low): 3
Odds Ratio, PASI75 response status (All patients, 6 mg QD vs placebo, not adjusted for baseline disease activity): 2.88
Odds Ratio for PASI75 response (All patients, 6 mg QD vs placebo, week 16): 2.88
Odds Ratio, PASI75 response status (All patients, 6 mg QD vs placebo, week 16, adjusted for baseline PASI score): 3.052 and 3.05
Odds Ratio, PASI75 response status (All patients, 12 mg QD vs placebo, not adjusted for baseline disease activity): 5.781 and 5.78
Odds Ratio for PASI75 response (All patients, 12 mg QD vs placebo, week 16): 5.781
Odds Ratio, PASI75 response status (All patients, 12 mg QD vs placebo, week 16, adjusted for baseline PASI score): 6.494 and 6.49
Odds Ratio for PASI75 response (All patients, deucravacitinib treatment arms combined vs placebo, week 16): 3.998
Odds Ratio, PASI75 response status (All patients, treatment arms combined vs placebo): 3.998
PASI75 response rate at week 16 (BD2-high group, 6 mg QD and 12 mg QD vs placebo arm (FIG. 7)): higher in both 6 mg QD and 12 mg QD treatment arms compared to the placebo arm
Odds Ratio for PASI75 response (BD2-high-PASI-high, 6 mg QD vs placebo, week 16): 29.67
Odds Ratio for PASI75 response (BD2-high-PASI-high, 12 mg QD vs placebo, week 16): 43.084
Odds Ratio for PASI75 response (BD2-high-PASI-low, 6 mg QD vs placebo, week 16): 2.331
Odds Ratio for PASI75 response (BD2-high-PASI-low, 12 mg QD vs placebo, week 16): 10.995
Odds Ratio for PASI75 response (BD2-low-PASI-high, 6 mg QD vs placebo, week 16): 0.825
Odds Ratio for PASI75 response (BD2-low-PASI-high, 12 mg QD vs placebo, week 16): 7.787
Odds Ratio for PASI75 response (BD2-low-PASI-low, 6 mg QD vs placebo, week 16): 1.093
Odds Ratio for PASI75 response (BD2-low-PASI-low, 12 mg QD vs placebo, week 16): 0.967
Odds Ratio for PASI75 response (BD2 high (baseline above median 9,265 ng/L), 6 mg QD vs placebo, week 16): 10.905
Odds Ratio for PASI75 response (BD2 high (baseline above median 9,265 ng/L), 12 mg QD vs placebo, week 16): 24.118
Odds Ratio for PASI75 response (BD2 high, treatment arms combined vs placebo, week 16): 15.415
Odds Ratio for PASI75 response (BD2 low, 6 mg QD vs placebo, week 16): 0.938
Odds Ratio for PASI75 response (BD2 low, 12 mg QD vs placebo, week 16): 1.695
Odds Ratio for PASI75 response (BD2 low, treatment arms combined vs placebo, week 16): 1.274
Odds Ratio for PASI75 response (Baseline PASI high (above median 6.6), 6 mg QD vs placebo, week 16): 6.94 and 6.937
Odds Ratio for PASI75 response (Baseline PASI high (above median 6.6), 12 mg QD vs placebo, week 16): 15.75
Odds Ratio for PASI75 response (Baseline PASI low (at or below median 6.6), 6 mg QD vs placebo, week 16): 1.26 and 1.258
Odds Ratio for PASI75 response (Baseline PASI low (at or below median 6.6), 12 mg QD vs placebo, week 16): 2.454
Odds Ratio, PASI75 response status (CRP high, 6 mg QD vs placebo): 3.54
Odds Ratio, PASI75 response status (CRP high, 12 mg QD vs placebo): 9.78
Odds Ratio, PASI75 response status (CRP high, treatment arms combined vs placebo): 5.405
Odds Ratio for PASI75 response (CRP level above median and baseline PASI score above median, 6 mg QD vs placebo, week 16): 18.381
Odds Ratio, PASI75 response status (CRP low, 6 mg QD vs placebo): 2.12
Odds Ratio, PASI75 response status (CRP low, 12 mg QD vs placebo): 3.72
Odds Ratio, PASI75 response status (CRP low, treatment arms combined vs placebo): 2.840
Odds Ratio, PASI75 response status (CRP-high-PASI-high, 6 mg QD vs placebo): 18.381
